Test results published in patent US9937151B2, “Carbapenem antibacterials with gram-negative activity” (priority 2010, dated 2018).
Converted amounts (≈) assume the structure as drawn.

Test system: G(−) bacterial strains
Assay: Dilution antimicrobial susceptibility tests (MIC, NCCLS agar dilution / broth dilution)
Assay type: cell-based, Gram-negative organisms
Settings: unit assumed
Experimental: The MIC (minimum inhibitory concentration) was determined by the NCCLS (National Committee for Clinical Laboratory Standards) methods 2000. Methods for dilution antimicrobial susceptibility testing for bacteria that growth aerobically (M7-A5, vol. 20, No. 2). The agar dilution method for determining antimicrobial susceptibility was carried out using Mueller-Hinton agar. A final inoculum of 10^4 CFU/spot was applied with an inoculation device. Broth dilution tests were performed with 5×10^5 CFU/well in 96 well plates. The susceptibilities of streptococci were determined by Mueller-Hinton agar supplemented with 5% sheep blood. All assays were run with the indicated control strains, available from the ATCC (American Type Culture Collection, Rockville, Md.).
Abbreviations used in Table 1 are defined as follows: Cf-R: Ceftazidime Resistance, Ci-R: Ciprofloxacin Resistance, Gen-R: Gentamycin Resistance, Imp-R: Imipenem Resistance, Mp-R: Meropenem Resistance, Ofx-R: Ofloxacin Resistance, B+: β-lactamase Production, AmpC: AmpC-lactamase Hyper production, CBPase: Carbapenemase Production.

[1] = strain #1 Acinetobacter calcoaceticus
[2] = strain #2 Acinetobacter baumannii, Cf-R, Ci-R
[3] = strain #3 Acinetobacter baumannii, Cf-R, Ci-R, Mp-I
[4] = strain #4 Acinetobacter baumannii, Cf-R, Imp-I, CBPase
[5] = strain #7 Enterobacter aerogenes
[6] = strain #8 Enterobacter cloacae, Cf-R, B+
[7] = strain #9 Enterobacter cloacae, Cf-R
[8] = strain #10 Escherichia coli, Ci-R
[9] = strain #11 Escherichia coli, Ci-R, AmpC
[10] = strain #15 Klebsiella pneumoniae
[11] = strain #16 Moraxella catarrhalis
[12] = strain #21 Providencia rettgeri
[13] = strain #22 Salmonella typhimurium
[14] = strain #25 Shigella dysenteriae
[15] = strain #28 Stenotrophomonas maltophilia
[16] = strain #29 Pseudomonas aeruginosa
[17] = strain #30 Pseudomonas aeruginosa
[18] = strain #31 Pseudomonas aeruginosa, Ofx-R
[19] = strain #32 Pseudomonas aeruginosa, Cf-R
[20] = strain #33 Pseudomonas aeruginosa, Ci-R
[21] = strain #34 Pseudomonas aeruginosa, Gen-R
[22] = strain #35 Pseudomonas aeruginosa, Ip-R
[23] = strain #36 Pseudomonas aeruginosa, Cf-R, Ci-R, Mp-R

Compound	MIC [1] [µg/mL]	MIC [2] [µg/mL]	MIC [3] [µg/mL]	MIC [4] [µg/mL]	MIC (strain #5 Citrobacter diversus) [µg/mL]	MIC (strain #6 Citrobacter freundii) [µg/mL]	MIC [5] [µg/mL]	MIC [6] [µg/mL]	MIC [7] [µg/mL]	MIC [8] [µg/mL]	MIC [9] [µg/mL]	MIC (strain #12 Escherichia coli) [µg/mL]	MIC (strain #13 Escherichia coli) [µg/mL]	MIC (strain #14 Klebsiella oxytoca) [µg/mL]	MIC [10] [µg/mL]	MIC [11] [µg/mL]	MIC (strain #17 Morganella Morganii) [µg/mL]	MIC (strain #18 Morganella Morganii) [µg/mL]	MIC (strain #19 Proteus vulgaris) [µg/mL]	MIC (strain #20 Proteus mirabilis) [µg/mL]	further results
C[C@@H](O)C1C(=O)N2C(C(=O)O)=C(CN3CC(N)C3)[C@H](C)C12 (stereo partly drawn) [Compound 93]	1 (≈ 3.39 µM)	2 (≈ 6.77 µM)	8 (≈ 27.1 µM)	2 (≈ 6.77 µM)	0.25 (≈ 0.846 µM)	0.5 (≈ 1.69 µM)	2 (≈ 6.77 µM)	0.25 (≈ 0.846 µM)	0.5 (≈ 1.69 µM)	0.25 (≈ 0.846 µM)	0.25 (≈ 0.846 µM)	0.25 (≈ 0.846 µM)	0.5 (≈ 1.69 µM)	0.5 (≈ 1.69 µM)	0.5 (≈ 1.69 µM)	0.031 (≈ 0.105 µM)	8 (≈ 27.1 µM)	4 (≈ 13.5 µM)	2 (≈ 6.77 µM)	0.5 (≈ 1.69 µM)	MIC [12]: 2 µg/mL (≈ 6.77 µM); MIC [13]: 0.5 µg/mL (≈ 1.69 µM); MIC (strain #23 Serratia marcescens): 1 µg/mL (≈ 3.39 µM); MIC (strain #24 Serratia marcescens): 1 µg/mL (≈ 3.39 µM); MIC [14]: 0.5 µg/mL (≈ 1.69 µM); MIC (strain #26 Shigella sonnei): 0.5 µg/mL (≈ 1.69 µM); MIC (strain #27 Shigella flexneri): 0.25 µg/mL (≈ 0.846 µM); MIC [15]: 0.5 µg/mL (≈ 1.69 µM); MIC [16]: 4 µg/mL (≈ 13.5 µM); MIC [17]: 4 µg/mL (≈ 13.5 µM); MIC [18]: 4 µg/mL (≈ 13.5 µM); MIC [19]: 4 µg/mL (≈ 13.5 µM); MIC [20]: 8 µg/mL (≈ 27.1 µM); MIC [21]: 8 µg/mL (≈ 27.1 µM); MIC [22]: 16 µg/mL (≈ 54.2 µM); MIC [23]: 16 µg/mL (≈ 54.2 µM)
C[C@@H](O)C1C(=O)N2C(C(=O)O)=C(CN3CC(NS(N)(=O)=O)C3)[C@H](C)C12 (stereo partly drawn) [Compound 58]	0.5 (≈ 1.34 µM)	2 (≈ 5.34 µM)	4 (≈ 10.7 µM)	2 (≈ 5.34 µM)	0.13 (≈ 0.347 µM)	0.25 (≈ 0.668 µM)	0.5 (≈ 1.34 µM)	0.13 (≈ 0.347 µM)	0.25 (≈ 0.668 µM)	0.13 (≈ 0.347 µM)	0.13 (≈ 0.347 µM)	0.13 (≈ 0.347 µM)	0.25 (≈ 0.668 µM)	0.25 (≈ 0.668 µM)	0.25 (≈ 0.668 µM)	≤ 0.008	1 (≈ 2.67 µM)	1 (≈ 2.67 µM)	0.5 (≈ 1.34 µM)	0.25 (≈ 0.668 µM)	MIC [12]: 0.5 µg/mL (≈ 1.34 µM); MIC [13]: 0.25 µg/mL (≈ 0.668 µM); MIC (strain #23 Serratia marcescens): 0.5 µg/mL (≈ 1.34 µM); MIC (strain #24 Serratia marcescens): 0.5 µg/mL (≈ 1.34 µM); MIC [14]: 0.25 µg/mL (≈ 0.668 µM); MIC (strain #26 Shigella sonnei): 0.25 µg/mL (≈ 0.668 µM); MIC (strain #27 Shigella flexneri): 0.13 µg/mL (≈ 0.347 µM); MIC [15]: 0.25 µg/mL (≈ 0.668 µM); MIC [16]: 8 µg/mL (≈ 21.4 µM); MIC [17]: 8 µg/mL (≈ 21.4 µM); MIC [18]: 4 µg/mL (≈ 10.7 µM); MIC [19]: 8 µg/mL (≈ 21.4 µM); MIC [20]: 8 µg/mL (≈ 21.4 µM); MIC [21]: 8 µg/mL (≈ 21.4 µM); MIC [22]: 16 µg/mL (≈ 42.7 µM); MIC [23]: 32 µg/mL (≈ 85.5 µM)
CC(=O)N[C@H]1CCN(CC2=C(C(=O)O)N3C(=O)C([C@@H](C)O)C3[C@H]2C)C1 (stereo partly drawn) [Compound 32]	2 (≈ 5.69 µM)	2 (≈ 5.69 µM)	4 (≈ 11.4 µM)	2 (≈ 5.69 µM)	1 (≈ 2.85 µM)	1 (≈ 2.85 µM)	4 (≈ 11.4 µM)	1 (≈ 2.85 µM)	2 (≈ 5.69 µM)	1 (≈ 2.85 µM)	0.5 (≈ 1.42 µM)	1 (≈ 2.85 µM)	1 (≈ 2.85 µM)	2 (≈ 5.69 µM)	2 (≈ 5.69 µM)	0.016 (≈ 0.0455 µM)	8 (≈ 22.8 µM)	4 (≈ 11.4 µM)	4 (≈ 11.4 µM)	1 (≈ 2.85 µM)	MIC [12]: 4 µg/mL (≈ 11.4 µM); MIC [13]: 1 µg/mL (≈ 2.85 µM); MIC (strain #23 Serratia marcescens): 2 µg/mL (≈ 5.69 µM); MIC (strain #24 Serratia marcescens): 2 µg/mL (≈ 5.69 µM); MIC [14]: 1 µg/mL (≈ 2.85 µM); MIC (strain #26 Shigella sonnei): 1 µg/mL (≈ 2.85 µM); MIC (strain #27 Shigella flexneri): 0.5 µg/mL (≈ 1.42 µM); MIC [15]: 1 µg/mL (≈ 2.85 µM); MIC [16]: 16 µg/mL (≈ 45.5 µM); MIC [17]: 16 µg/mL (≈ 45.5 µM); MIC [18]: 4 µg/mL (≈ 11.4 µM); MIC [19]: 16 µg/mL (≈ 45.5 µM); MIC [20]: 16 µg/mL (≈ 45.5 µM); MIC [21]: 16 µg/mL (≈ 45.5 µM); MIC [22]: 32 µg/mL (≈ 91.1 µM); MIC [23]: > 32 µg/mL
CC(=O)NC(=N)N[C@H]1CCN(CC2=C(C(=O)O)N3C(=O)C([C@@H](C)O)C3[C@H]2C)C1 (stereo partly drawn) [Compound 111]	1 (≈ 2.54 µM)	4 (≈ 10.2 µM)	4 (≈ 10.2 µM)	4 (≈ 10.2 µM)	0.5 (≈ 1.27 µM)	0.5 (≈ 1.27 µM)	2 (≈ 5.08 µM)	1 (≈ 2.54 µM)	1 (≈ 2.54 µM)	0.5 (≈ 1.27 µM)	0.5 (≈ 1.27 µM)	0.5 (≈ 1.27 µM)	0.5 (≈ 1.27 µM)	1 (≈ 2.54 µM)	1 (≈ 2.54 µM)	≤ 0.008	4 (≈ 10.2 µM)	2 (≈ 5.08 µM)	2 (≈ 5.08 µM)	0.5 (≈ 1.27 µM)	MIC [12]: 2 µg/mL (≈ 5.08 µM); MIC [13]: 0.5 µg/mL (≈ 1.27 µM); MIC (strain #23 Serratia marcescens): 1 µg/mL (≈ 2.54 µM); MIC (strain #24 Serratia marcescens): 2 µg/mL (≈ 5.08 µM); MIC [14]: 0.5 µg/mL (≈ 1.27 µM); MIC (strain #26 Shigella sonnei): 0.5 µg/mL (≈ 1.27 µM); MIC (strain #27 Shigella flexneri): 0.5 µg/mL (≈ 1.27 µM); MIC [15]: 0.5 µg/mL (≈ 1.27 µM); MIC [16]: 4 µg/mL (≈ 10.2 µM); MIC [17]: 4 µg/mL (≈ 10.2 µM); MIC [18]: 1 µg/mL (≈ 2.54 µM); MIC [19]: 4 µg/mL (≈ 10.2 µM); MIC [20]: 8 µg/mL (≈ 20.3 µM); MIC [21]: 4 µg/mL (≈ 10.2 µM); MIC [22]: 8 µg/mL (≈ 20.3 µM); MIC [23]: > 32 µg/mL
